# Experimental data: patent publication US20250213561A1, “SELECTIVE HYPOTHALAMUS PERMEABLE HDAC6 INHIBITORS FOR TREATMENT OF LEPTIN-RESISTANT OBESITY” (The Children’s Medical Center Corporation, priority 2022, published 2025)
# Entries after “also recorded” stand apart in the source; their conditions may differ.
# Legend:
# Type in all cases: in vivo
# [1] = test system: HDAC6 in ACY775-responsive DMH neurons; test: TRAP2-HDAC6^DMH-Δ DIO mice; settings: TRAP2-HDAC6^DMH-Δ and TRAP2-HDAC6^WT DIO mice
# Method: Coordinates used for aav-sg-HDAC6 injection into the DMH of c-Fos-iCreER::LSL-Cas9-GFP (TRAP2-Cas9) mouse., mCherry immunostaining in the aav-sg-HDAC6 injected TRAP2-cas9 obese mice, which were treated three weeks earlier with one dose of ACY775 (10 mg/kg, i.p.) (TRAP2-HDAC6^DMH-Δ) or vehicle (TRAP2-HDAC6^WT), followed by 4-Hydroxytamoxifen (4-OHT) injection, were assessed. TRAP2-HDAC6^WT and TRAP2-HDAC6^DMH-Δ mice were fasted 24-h and treated with ACY775 (10 mg/kg, i.p.). Hourly and total dark cycle food intake (g) (n=4 for each group) was determined for these mice after ACY775 injection. Daily body weight of TRAP2-HDAC6^DMH-Δ(n=10) or TRAP2-HDAC6^WT(n=11) DIO mice was measured during 2 weeks of ACY775 (10 mg/kg/day, i.p) treatment. Daily average food intake of TRAP2-HDAC6^DMH-Δ(n=10) or TRAP2-HDAC6^WT(n=11) DIO mice was measured during 2 weeks of ACY775 treatment.
# To investigate whether activity of other neuronal populations are altered after HDAC6 inhibitor treatment, c-fos staining was performed in the whole brain of DIO mice, which were acutely treated with ACY775. […] Some of the DMH neurons express high levels of LepRb and involved in regulation of appetite […]. Whether HDAC6 in these ACY775-responsive DMH neurons is required or involved in any way in mediating the appetite suppressing and body weight lowering effects of ACY775 was then tested. […]
# [2] = test system: ACY775-responsive DMH neurons; test: Caspase3 ablation of ACY775-responsive DMH neurons in TRAP2 DIO mice
# Method: Whether the activity of ACY775-responsive DMH neurons could be involved in the food intake and bodyweight reducing activity of HDAC6 inhibitors was investigated as a possible second order of neurons to AgRP^ARC neurons. These neurons were ablated to investigate the necessity of these neurons in mediating the ACY775's anti-obesity effects. AAV-flex-taCasp3-TEVp was injected into the DMH of TRAP2 DIO mice, and then the mice were injected with a single dose of ACY775 and 4-OHT to ablate these neurons through caspase3 protein activation. To make sure that this experimental system worked, the existence of ACY775-responsive DMH neurons was verified by c-fos staining after injection of a second dose of ACY775. This experimental method predicts that caspase 3, when activated by administration of the first dose of ACY775 in conjugation with 4-OHT injection, will lead to ablation of ACY775-responsive DMH neurons, and diminish the c-fos signals that would otherwise be created by the second dose of ACY775.
# HDAC6 in AgRP neurons = test: DIO mice with HDAC6 depleted in AgRP neurons (HDAC6^Agrp-Δ)
# Method: Design, validation, and stereotaxic injection of AAV viral vector carrying the guide RNAs targeting the mouse HDAC6 genomic locus. Three designed sgRNAs were concatenated and constructed into an AAV vector carrying a cre-enabled mCherry fluorescent marker.
# Following the bilateral injection of AAV-sgHDAC6 into the arcuate nucleus of Agrp-ires-cre::LSL-Cas9-GFP (Agrp-Cre^+/−::Cas9^+/−) or control LSL-Cas9-GFP (Cas9^+/−) mice, immunostaining to detect the expression of mCherry and GFP was performed. AAV-sg-HDAC6 injected Agrp-Cre^+/−::Cas9^+/− (HDAC6^Agrp-Δ) and Cas9^+/−(HDAC6^WT) DIO mice (n=7 for each group) were fasted for 24 hours, and injected with ACY775 (10 mg/kg. i.p). Hourly total dark cycle food intake (g) (n=7 for each group) of these mice after ACY775 injection was measured. Body weight of AAV-sg-HDAC6 injected HDAC6^Agrp-Δ (n=11) and HDAC6^WT (n=6) mice were measured during 3 weeks of ACY775 (10 mg/kg/day, i.p.) treatment. Daily average food intake of HDAC6^Agrp-Δ (n=11) and HDAC6^WT (n=6) mice was measured during 3 weeks of ACY775 (10 mg/kg/day, i.p.) treatment. 24-hour food intake average of HDAC6^Agrp-Δ and HDAC6^WT mice during the 3 weeks of ACY775 treatment was assessed. Serum leptin level (ng/ml) of HDAC6^Agrp-Δ and HDAC6^WT mice after 2 weeks of ACY775 treatment (n=13 for HDAC6^WT and n=18 for HDAC6^Agrp-Δ) was measured. Lean mass (g); fat mass; and fat percentage (%) of HDAC6^Agrp-Δ and HDAC6^WT DIO mice after 3 weeks of ACY775 treatment was measured by DEXA scan. The HDAC6 inhibitor responsive neurons in the dorsomedial hypothalamus (DMH) were assessed. Immunostaining and quantification of c-Fos expression was performed in the DMH of DIO mice following one-time ACY775 treatment (10 mg/kg, i.p.).
structure (smiles),measurement,setting,value
"O=C(NO)c1cnc(NC2(c3cccc(F)c3)CCCCC2)nc1 [ACY775, 2-[[1-(3-fluorophenyl)cyclohexyl]amino]-N-hydroxy-5-pyrimidinecarboxamide]","body weight and food intake, two weeks",[1],lost weight and food intake was reduced equally in both groups
same,food intake after a dose in 24 h fasted mice,[1],consumed similar but small amount of food
same,"body weight and food consumption, chronic",[2]; 10 mg/kg/day i.p.,neither reduced the body weight nor the food consumption in caspase3^on-DMH mice; also recorded: did reduce the food intake and bodyweight in caspase3^off-DMH mice
same,blood glucose levels,[2]; caspase3^on-DMH versus caspase3^off-DMH,significantly higher in caspase3^on-DMH mice
same,food intake in fasted mice,"[2]; caspase3^on-DMH versus caspase3^off-DMH, 10 mg/kg i.p.",significantly higher than caspase3^off-DMH mice
same,suppression of food intake after a single dose,"HDAC6 in AgRP neurons; HDAC6^Agrp-Δ DIO mice, 10 mg/kg i.p.",almost complete resistance to ACY755-induced suppression of food intake
same,anti-obesity effects on chronic treatment,HDAC6 in AgRP neurons; HDAC6^Agrp-Δ versus HDAC6^WT DIO mice,Significantly attenuated effects
